Source: US20230077362A1 (CORTEVA AGRISCIENCE LLC, priority 2019, published 2023)

Assays:
[1] = system: Cabbage Looper (Trichoplusia ni) ("CL"), second instar larvae; assay: Bioassay on cabbage looper (CL), 128-well diet tray assay; type: in vivo; settings: for pest or weed control at 50 µg/cm2: Trichoplusia ni, read-out: CL rating; for CL rating: Table ABC, species CL, C = not tested, D = no activity noticed
Method in brief: (§1)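 After sealing with a clear self-adhesive lid, the trays are incubated at 25° C. with 14 h light and 10 h dark for 5 to 7 days; mortality in each well is recorded as a percentage and averaged across the eight wells.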

[2] = system: Beet Armyworm (Spodoptera exigua) ("BAW"), second instar larvae; assay: Bioassay on beet armyworm (BAW), 128-well diet tray assay; type: in vivo; settings: for pest or weed control at 50 µg/cm2: Spodoptera exigua, read-out: BAW rating; for BAW rating: Table ABC, species BAW, C = not tested, D = no activity noticed
Method in brief: as §1

COC(C)c1ccc(C)cc1N1C(=O)CS/C1=N\C(=O)Nc1ccc(-c2cn(-c3ccc(C(F)(F)F)cn3)cn2)cc1C (stereo not drawn) [Compound J508, (Z)-1-(3-(2-(1-Methoxyethyl)-5-methylphenyl)-4-oxothiazolidin-2-ylidene)-3-(2-methyl-4-(1-(5-(trifluoromethyl)pyridin-2-yl)-1H-imidazol-4-yl)phenyl)urea]
pest or weed control at 50 µg/cm2 [1]: 50 to 100%
pest or weed control at 50 µg/cm2 [2]: 50 to 100%

Cc1ccc(C(C)C)c(N2C(=O)CS/C2=N\C(=O)Nc2ccc(-c3cn(-c4ccc(C(F)(F)F)cn4)cn3)cc2C)c1 [Compound J509, (Z)-1-(3-(2-Isopropyl-5-methylphenyl)-4-oxothiazolidin-2-ylidene)-3-(2-methyl-4-(1-(5-(trifluoromethyl)pyridin-2-yl)-1H-imidazol-4-yl)phenyl)urea]
pest or weed control at 50 µg/cm2 [1]: 50 to 100%
pest or weed control at 50 µg/cm2 [2]: 50 to 100%

Cc1ccc(COCC(F)(F)F)c(N2C(=O)CS/C2=N\C(=O)Nc2ccc(-c3cn(-c4ccc(C(F)(F)F)cn4)cn3)cc2C)c1 [Compound J511, (Z)-1-(3-(5-Methyl-2-((2,2,2-trifluoroethoxy)methyl)phenyl)-4-oxothiazolidin-2-ylidene)-3-(2-methyl-4-(1-(5-(trifluoromethyl)pyridin-2-yl)-1H-imidazol-4-yl)phenyl)urea]
pest or weed control at 50 µg/cm2 [1]: 50 to 100%
pest or weed control at 50 µg/cm2 [2]: 50 to 100%

Cc1ccc(OCCC(F)(F)F)c(N2C(=O)CS/C2=N\C(=O)Nc2ccc(-c3cn(-c4ccc(C(F)(F)F)cn4)cn3)cc2C)c1 [Compound J512, (Z)-1-(3-(5-Methyl-2-(3,3,3-trifluoropropoxy)phenyl)-4-oxothiazolidin-2-ylidene)-3-(2-methyl-4-(1-(5-(trifluoromethyl)pyridin-2-yl)-1H-imidazol-4-yl)phenyl)urea]
pest or weed control at 50 µg/cm2 [1]: 50 to 100%
pest or weed control at 50 µg/cm2 [2]: 50 to 100%

COC(C)c1ccc(C)cc1N1C(=O)CS/C1=N\C(=O)Nc1ccc(-c2cn(-c3ccc(C(F)(F)F)cc3)cn2)cc1 (stereo not drawn) [Compound J513, (Z)-1-(3-(2-(1-Methoxyethyl)-5-methylphenyl)-4-oxothiazolidin-2-ylidene)-3-(4-(1-(4-(trifluoromethyl)phenyl)-1H-imidazol-4-yl)phenyl)urea]
pest or weed control at 50 µg/cm2 [1]: 50 to 100%
pest or weed control at 50 µg/cm2 [2]: 50 to 100%

Cc1ccc(C(C)C)c(N2C(=O)CS/C2=N\C(=O)Nc2ccc(-c3cn(-c4ccc(C(F)(F)F)cc4)cn3)cc2)c1 [Compound J514, (Z)-1-(3-(2-Isopropyl-5-methylphenyl)-4-oxothiazolidin-2-ylidene)-3-(4-(1-(4-(trifluoromethyl)phenyl)-1H-imidazol-4-yl)phenyl)urea]
pest or weed control at 50 µg/cm2 [1]: 50 to 100%
pest or weed control at 50 µg/cm2 [2]: 50 to 100%

CC(C)c1ccc(N(C)C)cc1N1C(=O)CS/C1=N\C(=O)Nc1ccc(-c2cn(-c3ccc(C(F)(F)F)cc3)cn2)cc1 [Compound J515, (Z)-1-(3-(5-(Dimethylamino)-2-isopropylphenyl)-4-oxothiazolidin-2-ylidene)-3-(4-(1-(4-(trifluoromethyl)phenyl)-1H-imidazol-4-yl)phenyl)urea]
pest or weed control at 50 µg/cm2 [1]: 50 to 100%
pest or weed control at 50 µg/cm2 [2]: 50 to 100%

Cc1ccc(COCC(F)(F)F)c(N2C(=O)CS/C2=N\C(=O)Nc2ccc(-c3cn(-c4ccc(C(F)(F)F)cc4)cn3)cc2)c1 [Compound J516, (Z)-1-(3-(5-Methyl-2-((2,2,2-trifluoroethoxy)methyl)phenyl)-4-oxothiazolidin-2-ylidene)-3-(4-(1-(4-(trifluoromethyl)phenyl)-1H-imidazol-4-yl)phenyl)urea]
pest or weed control at 50 µg/cm2 [1]: 50 to 100%
pest or weed control at 50 µg/cm2 [2]: 50 to 100%

Cc1ccc(OCCC(F)(F)F)c(N2C(=O)CS/C2=N\C(=O)Nc2ccc(-c3cn(-c4ccc(C(F)(F)F)cc4)cn3)cc2)c1 [Compound J517, (Z)-1-(3-(5-Methyl-2-(3,3,3-trifluoropropoxy)phenyl)-4-oxothiazolidin-2-ylidene)-3-(4-(1-(4-(trifluoromethyl)phenyl)-1H-imidazol-4-yl)phenyl)urea]
pest or weed control at 50 µg/cm2 [1]: 50 to 100%
pest or weed control at 50 µg/cm2 [2]: 50 to 100%

COC(C)c1ccc(C)cc1N1C(=O)CS/C1=N\C(=O)Nc1ccc(-c2cn(-c3ccc(C(F)(F)F)cn3)cn2)cc1 (stereo not drawn) [Compound J518, (Z)-1-(3-(2-(1-Methoxyethyl)-5-methylphenyl)-4-oxothiazolidin-2-ylidene)-3-(4-(1-(5-(trifluoromethyl)pyridin-2-yl)-1H-imidazol-4-yl)phenyl)urea]
pest or weed control at 50 µg/cm2 [1]: 50 to 100%
pest or weed control at 50 µg/cm2 [2]: 50 to 100%

Cc1ccc(C(C)C)c(N2C(=O)CS/C2=N\C(=O)Nc2ccc(-c3cn(-c4ccc(C(F)(F)F)cn4)cn3)cc2)c1 [Compound J519, (Z)-1-(3-(2-Isopropyl-5-methylphenyl)-4-oxothiazolidin-2-ylidene)-3-(4-(1-(5-(trifluoromethyl)pyridin-2-yl)-1H-imidazol-4-yl)phenyl)urea]
pest or weed control at 50 µg/cm2 [1]: 50 to 100%
pest or weed control at 50 µg/cm2 [2]: 50 to 100%

CC(C)c1ccc(N(C)C)cc1N1C(=O)CS/C1=N\C(=O)Nc1ccc(-c2cn(-c3ccc(C(F)(F)F)cn3)cn2)cc1 [Compound J520, (Z)-1-(3-(5-(Dimethylamino)-2-isopropylphenyl)-4-oxothiazolidin-2-ylidene)-3-(4-(1-(5-(trifluoromethyl)pyridin-2-yl)-1H-imidazol-4-yl)phenyl)urea]
pest or weed control at 50 µg/cm2 [1]: 50 to 100%
pest or weed control at 50 µg/cm2 [2]: 50 to 100%

Cc1ccc(COCC(F)(F)F)c(N2C(=O)CS/C2=N\C(=O)Nc2ccc(-c3cn(-c4ccc(C(F)(F)F)cn4)cn3)cc2)c1 [Compound J521, (Z)-1-(3-(5-Methyl-2-((2,2,2-trifluoroethoxy)methyl)phenyl)-4-oxothiazolidin-2-ylidene)-3-(4-(1-(5-(trifluoromethyl)pyridin-2-yl)-1H-imidazol-4-yl)phenyl)urea]
pest or weed control at 50 µg/cm2 [1]: 50 to 100%
pest or weed control at 50 µg/cm2 [2]: 50 to 100%

Cc1ccc(OCCC(F)(F)F)c(N2C(=O)CS/C2=N\C(=O)Nc2ccc(-c3cn(-c4ccc(C(F)(F)F)cn4)cn3)cc2)c1 [Compound J522, (Z)-1-(3-(5-Methyl-2-(3,3,3-trifluoropropoxy)phenyl)-4-oxothiazolidin-2-ylidene)-3-(4-(1-(5-(trifluoromethyl)pyridin-2-yl)-1H-imidazol-4-yl)phenyl)urea]
pest or weed control at 50 µg/cm2 [1]: 50 to 100%
pest or weed control at 50 µg/cm2 [2]: 50 to 100%

Cc1ccc(C(C)C)c(N2C(=O)CS/C2=N\C(=O)Nc2ccc(-c3cn(-c4ccc(C(F)(F)F)cc4)cn3)cc2C)c1 [Compound J523, (Z)-1-(3-(2-Isopropyl-5-methylphenyl)-4-oxothiazolidin-2-ylidene)-3-(2-methyl-4-(1-(4-(trifluoromethyl)phenyl)-1H-imidazol-4-yl)phenyl)urea]
pest or weed control at 50 µg/cm2 [1]: 50 to 100%
pest or weed control at 50 µg/cm2 [2]: 50 to 100%

Cc1cc(-c2cn(-c3ccc(C(F)(F)F)cc3)cn2)ccc1NC(=O)/N=C1\SCC(=O)N1c1cc(N(C)C)ccc1C(C)C [Compound J524, (Z)-1-(3-(5-(Dimethylamino)-2-isopropylphenyl)-4-oxothiazolidin-2-ylidene)-3-(2-methyl-4-(1-(4-(trifluoromethyl)phenyl)-1H-imidazol-4-yl)phenyl)urea]
pest or weed control at 50 µg/cm2 [1]: 50 to 100%
pest or weed control at 50 µg/cm2 [2]: 50 to 100%

COC(C)c1ccc(C)cc1N1C(=O)CS/C1=N\C(=O)Nc1ccc(-c2cn(-c3ccc(C(F)(F)F)cc3)cn2)cc1C (stereo not drawn) [Compound J525, (Z)-1-(3-(2-(1-Methoxyethyl)-5-methylphenyl)-4-oxothiazolidin-2-ylidene)-3-(2-methyl-4-(1-(4-(trifluoromethyl)phenyl)-1H-imidazol-4-yl)phenyl)urea]
pest or weed control at 50 µg/cm2 [1]: 50 to 100%
pest or weed control at 50 µg/cm2 [2]: 50 to 100%

Cc1ccc(COCC(F)(F)F)c(N2C(=O)CS/C2=N\C(=O)Nc2ccc(-c3cn(-c4ccc(C(F)(F)F)cc4)cn3)cc2C)c1 [Compound J526, (Z)-1-(3-(5-Methyl-2-((2,2,2-trifluoroethoxy)methyl)phenyl)-4-oxothiazolidin-2-ylidene)-3-(2-methyl-4-(1-(4-(trifluoromethyl)phenyl)-1H-imidazol-4-yl)phenyl)urea]
pest or weed control at 50 µg/cm2 [1]: 50 to 100%
pest or weed control at 50 µg/cm2 [2]: 50 to 100%

Cc1ccc(OCCC(F)(F)F)c(N2C(=O)CS/C2=N\C(=O)Nc2ccc(-c3cn(-c4ccc(C(F)(F)F)cc4)cn3)cc2C)c1 [Compound J527, (Z)-1-(3-(5-Methyl-2-(3,3,3-trifluoropropoxy)phenyl)-4-oxothiazolidin-2-ylidene)-3-(2-methyl-4-(1-(4-(trifluoromethyl)phenyl)-1H-imidazol-4-yl)phenyl)urea]
pest or weed control at 50 µg/cm2 [1]: 50 to 100%
pest or weed control at 50 µg/cm2 [2]: 50 to 100%

CC(C)c1ccc(N(C)C)cc1N1C(=O)CS/C1=N\C(=O)Nc1ccc(-c2cn(-c3ccc(OC(F)(F)F)cc3)cn2)cc1 [Compound J529, (Z)-1-(3-(5-(Dimethylamino)-2-isopropylphenyl)-4-oxothiazolidin-2-ylidene)-3-(4-(1-(4-(trifluoromethoxy)phenyl)-1H-imidazol-4-yl)phenyl)urea]
pest or weed control at 50 µg/cm2 [1]: 50 to 100%
pest or weed control at 50 µg/cm2 [2]: 50 to 100%

Cc1ccc(COCC(C)(F)F)c(N2C(=O)CS/C2=N\C(=O)Nc2ccc(-c3ncn(-c4ccc(OC(F)(F)F)cc4)n3)cc2C)c1 [Compound J534]
CL rating [1]: A (50-100)
BAW rating [2]: A (50-100)

Cc1ccc(COCC(C)(F)F)c(N2C(=O)CS/C2=N\C(=O)Nc2ccc(-c3ncn(-c4ccc(OC(F)(F)F)cc4)n3)cc2F)c1 [Compound J535]
CL rating [1]: A (50-100)
BAW rating [2]: A (50-100)

CCCOc1ccc(C)cc1N1C(=O)CS/C1=N\C(=O)Nc1ccc(-c2ncn(-c3ccc(S(F)(F)(F)(F)F)cc3)n2)cc1F [Compound J541]
pest or weed control at 50 µg/cm2 [1]: 50 to 100%
pest or weed control at 50 µg/cm2 [2]: 50 to 100%

Cc1ccc(COCCC(F)(F)F)c(N2C(=O)CS/C2=N\C(=O)Nc2ccc(-c3ncn(-c4ccc(OC(F)(F)F)cc4)n3)cc2F)c1 [Compound J543]
CL rating [1]: A (50-100)
BAW rating [2]: A (50-100)
